Legend:
HCV Replicon 1b = assay: HCV inhibition assay, HCV replicon 1b (Clone A or ET-lunet cells; RT-PCR or luciferase reporter); type: cell-based; details: Hepatitis C virus, 96 h, HCV replicon 1b; 4 days incubation; read-out: Replicon 1b potency EC90
Outline: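 Clone A (1500/well) or ET-lunet (3000/well) replicon cells treated with serially diluted compounds (0.5% DMSO, no G418) for 4 days at 37 °C. HCV RNA measured by one-step RT-PCR normalized to rRNA (ΔΔCt) or by luciferase luminescence versus DMSO controls; EC50/EC90 by curve fitting.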

[1] = Cell cytotoxicity assay (MTS), CC90 as reported in Table 1, cell line not stated; type: cell-based; details: human; MTS assay; 8 days incubation; cell line not given
Outline: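 Compounds, serially diluted from 100 μM, were incubated 8 days at 37° C with Huh7, HepG2 or BxPC3 (2×10^3 cells/well) or CEM (5×10^3 cells/well). Viability was read by MTS, 2 h, absorbance 490 nm. CC90 (90% inhibition) was taken against untreated cells.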

| Structure (SMILES) | EC90 (HCV Replicon 1b) [µM] | CC90 at 8 days [1] [µM] |
| --- | --- | --- |
| CC(C)C[C@H]1CN(C(=O)c2cc(-c3ccc(Cl)cc3Cl)on2)[C@@H](CC(C)C)C(=O)N1 [Compound 275, (3S,6S)-4-(5-(2,4-dichlorophenyl)isoxazole-3-carbonyl)-3,6-diisobutylpiperazin-2-one] | 6.31 | > 10 |
| CC(C)C[C@H]1CN(C(=O)c2cc(-c3ccc(Cl)c(Cl)c3)on2)[C@@H](CC(C)C)C(=O)N1 [Compound 276, (3S,6S)-4-(5-(3,4-Dichlorophenyl)isoxazole-3-carbonyl)-3,6-diisobutylpiperazin-2-one] | 2.98 | > 10 |
| CSc1ccc(-c2cc(C(=O)N3C[C@H](CC(C)C)NC(=O)[C@@H]3CC(C)C)no2)cc1 [Compound 277, (3S,6S)-3,6-diisobutyl-4-(5-(4-(methylthio)phenyl)isoxazole-3-carbonyl)piperazin-2-one] | 5.84 | > 10 |
| CC(C)C[C@H]1CN(C(=O)Cc2cc(-c3ccc(F)cc3)on2)[C@@H](CC(C)C)C(=O)N1 [Compound 278, (3S,6S)-4-(2-(5-(4-fluorophenyl)isoxazol-3-yl)acetyl)-3,6-diisobutylpiperazin-2-one] | 7.89 | > 10 |
| CC(C)C[C@H]1C(=O)N[C@@H](CC(C)(C)C)CN1C(=O)[C@@H]1C[C@H]1c1ccccc1 [Compound 280, (3S,6S)-3-isobutyl-6-neopentyl-4-((1R,2R)-2phenylcyclopropanecarbonyl)piperazin-2-one] | 8.65 | > 10 |
| CC(C)(C)C[C@H]1CN(C(=O)[C@@H]2C[C@H]2c2ccccc2)[C@@H](CC(C)(C)C)C(=O)N1 [Compound 281, (3S,6S)-3,6-dineopentyl-4-((1R,2R)-2-phenylcyclopropanecarbonyl)-piperazin-2-one] | > 10 | > 10 |
| CCc1ccc(-c2cc(C(=O)N3C[C@H](CC(C)C)NC(=O)[C@@H]3CC(C)C)no2)cc1 [Compound 283, (3S,6S)-4-(5-(4-ethylphenyl)isoxazole-3-carbonyl)-3,6-diisobutylpiperazin-2-one] | 8.75 | > 10 |
| CC(C)C[C@H]1CN(C(=O)c2cc(-c3ccc(C4CC4)cc3)on2)[C@@H](CC(C)C)C(=O)N1 [Compound 284, (3S,6S)-4-(5-(4-cyclopropylphenyl)isoxazole-3-carbonyl)-3,6-diisobutylpiperazin-2-one] | > 10 | > 10 |
| COc1ccc2c(c1)CCc1cc(C(=O)N3C[C@H](CC(C)C)NC(=O)[C@@H]3CC(C)C)sc1-2 [Compound 286, (3S,6S)-3,6-diisobutyl-4-(7-methoxy-4,5-dihydronaphtho[1,2-b]thiophene-2-carbonyl)piperazin-2-one] | 3.91 | > 10 |
| CC(C)C[C@H]1CN(C(=O)c2cc(-c3cc(F)cc(F)c3)on2)[C@@H](CC(C)C)C(=O)N1 [Compound 287, (3S,6S)-4-(5-(3,5-difluorophenyl)isoxazole-3-carbonyl)-3,6-diisobutylpiperazin-2-one] | 3.57 | > 10 |
| CC(C)C[C@H]1C(=O)N[C@@H](CC2CC2)CN1C(=O)c1cc(-c2ccc(F)cc2F)on1 [Compound 288, (3S,6S)-6-(cyclopropylmethyl)-4-(5-(2,4-difluorophenyl)isoxazole-3-carbonyl)-3-isobutylpiperazin-2-one] | 1.6 | > 10 |
| COc1ccc2c(c1)CCc1c(C(=O)N3C[C@H](CC(C)C)NC(=O)[C@@H]3CC(C)C)noc1-2 [Compound 289, (3S,6S)-3,6-diisobutyl-4-(7-methoxy-4,5-dihydronaphtho[2,1-d]isoxazole-3-carbonyl)piperazin-2-one] | 5.01 | > 10 |
| CCC[C@H]1CN(C(=O)c2noc(-c3ccc(F)cc3)n2)[C@@H](CC(C)C)C(=O)N1 [Compound 290, (3S,6S)-4-(5-(4-fluorophenyl)-1,2,4-oxadiazole-3-carbonyl)-3-isobutyl-6-propylpiperazin-2-one] | 0.14 | > 10 |
| CC(C)C[C@H]1C(=O)N[C@@H](C2CCCCC2)CN1C(=O)c1noc(-c2ccc(F)cc2)n1 [Compound 291, (3S,6S)-6-cyclohexyl-4-(5-(4-fluorophenyl)-1,2,4-oxadiazole-3-carbonyl)-3-isobutylpiperazin-2-one] | 0.33 | > 10 |
| CC(C)C[C@H]1CN(C(=O)c2noc(-c3ccc(F)cc3)n2)[C@@H](CC(C)C)C(=O)N1 [Compound 293, (3S,6S)-4-(5-(4-Fluorophenyl)-1,2,4-oxadiazole-3-carbonyl)-3,6-diisobutylpiperazin-2-one] | 0.27 | > 10 |
| CC(C)C[C@H]1C(=O)N[C@@H](C2CCCC2)CN1C(=O)c1noc(-c2ccc(F)cc2)n1 [Compound 294, (3S,6S)-6-Cyclopentyl-4-(5-(4-fluorophenyl)-1,2,4-oxadiazole-3-carbonyl)-3-isobutylpiperazin-2-one] | 0.35 | > 10 |
| CC(C)C[C@H]1C(=O)N[C@@H](C(C)C)CN1C(=O)c1noc(-c2ccc(F)cc2)n1 [Compound 295, (3S,6S)-4-(5-(4-Fluorophenyl)-1,2,4-oxadiazole-3-carbonyl)-3-isobutyl-6-isopropylpiperazin-2-one] | 0.32 | > 10 |
| CSC[C@H]1CN(C(=O)c2noc(-c3ccc(F)cc3)n2)[C@@H](CC(C)C)C(=O)N1 [Compound 296, (3S,6R)-4-(5-(4-Fluorophenyl)-1,2,4-oxadiazole-3-carbonyl)-3-isobutyl-6-((methylthio)methyl)piperazin-2-one] | 1.54 | > 10 |
| CC(C)C[C@H]1C(=O)N[C@@H](CC2CC2)CN1C(=O)[C@@H]1C[C@H]1c1ccc(F)cc1 [Compound 297, (3S,6S)-4-[(1R,2R)-2-(4-Fluoro-phenyl)-cyclopropanecarbonyl]-6-cyclopropyl-methyl-3-isobutyl-piperazin-2-one] | 0.41 | > 10 |
| CSC[C@H]1CN(C(=O)[C@@H]2C[C@H]2c2ccc(F)cc2)[C@@H](CC(C)C)C(=O)N1 [Compound 299, (3S,6R)-4-((1R,2R)-2-(4-fluorophenyl)cyclopropanecarbonyl)-3-isobutyl-6-((methylthio)methyl)piperazin-2-one] | 0.63 | > 10 |
| CSC[C@H]1CN(C(=O)[C@@H]2C[C@H]2c2ccc(Cl)cc2)[C@@H](CC(C)C)C(=O)N1 [Compound 300, (3S,6R)-4-((1R,2R)-2-(4-Chlorophenyl)cyclopropanecarbonyl)-3-isobutyl-6-((methylthio)methyl)piperazin-2-one] | 0.78 | > 10 |
| CC(C)C[C@H]1CN(C(=O)c2noc3c2CCc2cc(F)ccc2-3)[C@@H](CC(C)C)C(=O)N1 [Compound 302, (3S,6S)-3,6-Diisobutyl-4-(7-fluoro-4,5-dihydronaphtho[2,1-d]isoxazole-3-carbonyl)piperazin-2-one] | 1.41 | > 10 |
| CCC[C@H]1CN(C(=O)c2noc3c2CCc2cc(F)ccc2-3)[C@@H](CC(C)C)C(=O)N1 [Compound 304, (3S,6S)-4-(7-fluoro-4,5-dihydronaphtho[2,1-d]isoxazole-3-carbonyl)-3-isobutyl-6-propylpiperazin-2-one] | 0.64 | > 10 |

From patent US20120202794A1 (priority 2011, published 2012)
